Results published in patent publication US11161852B1 (Halia Therapeutics, Inc., priority 2020, dated 2021).

Experiments:
[1] = molecular target: full-length recombinant human NEK7 (Homo sapiens (Human), UniProt Q8TDX7); experiment: NEK7 Enzymatic Assay ([33P]-ATP, casein substrate); format: biochemical
Description: Casein substrate (from bovine milk, hydrolyzed and partially dephosphorylated mixture of α, β and a caseins, obtained from Sigma Aldrich, catalogue #C4765, diluted in distilled water to a final concentration of 1 mg/mL) and full-length recombinant human NEK7 (expressed by baculovirus in Sf9 insect cells using a N-terminal GST tag, obtained from SignalChem, catalogue #N09-10G, 0.1 μg/μL) were mixed in assay buffer (20 mM Hepes pH 7.5, 10 mM MgCl2, 1 mM EGTA, 0.02% Brij35, 0.02 mg/ml BSA, 0.1 mM Na3VO4, 2 mM DTT, 1% DMSO). Compounds of interest (serial 3-fold dilution in DMSO from 10 μM to 0.5 nM) or vehicle (1% DMSO) were dispensed into the kinase reaction mixture by Acoustic technology (Echo550; nanoliter range). After incubation at room temperature for 20 minutes, the kinase reaction was initiated by addition of [^33P]-ATP (specific activity […]) and the mixture was incubated at room temperature for 2 hours. The reaction was then stopped by spotting the reaction mixture on strips of phosphocellulose P81 paper. Following washing, the radioactivity of the P81 paper was measured and kinase activity data were expressed as the percent remaining kinase activity in test samples compared to vehicle reactions. IC50 values and curve fits were obtained using Prism (GraphPad Software).

[2] = tested on: IL-1β release from THP-1 cells; experiment: IL-1β Release Assay (PMA-differentiated THP-1 cells, LPS + nigericin); format: cell-based; settings: Homo sapiens, 250 ng/mL LPS, 20 μM nigericin
Description: Approximately 1.5 million THP-1 cells were plated in each well of a 6-well TC plate and incubated with 40 nM PMA in RPMI (10% FBS, 1% Penstrep) for 24 hours. The media was then removed and cells were rested in RPMI (10% FBS, 1% Penstrep) for 24 hours after which time the media was removed and cells were pre-treated for 2 hours with various concentrations of compounds of interest (typically serial 3-fold dilution in RPMI+5% FBS, concentrations ranging from 1 μM to 0.5 nM) in RPMI (5% FBS). The media was again removed and cells were incubated with 250 ng/mL LPS and compounds of interest (concentrations as above) in RMPI (5% FBS) for 2 hours. The media was removed for a last time and cells were incubated with 20 μM nigericin and compounds of interest (concentrations as above) in Opti-MEM for 30 minutes. Cell media was then collected and the amount of cleaved IL-1β was determined using a JESS instrument (Protein Simple) and standard protocols. Cleaved Il-1β antibody was obtained from Cell Signaling (catalogue #83186S) and was used at 1:20 dilution in antibody diluent 2. Protein Simple 1× anti-Rabbit HRP secondary antibody was used along with Protein Simple luminol and peroxide for chemiluminescent detection. Primary antibody incubation time was increased from 30 minutes to 60 minutes.

full-length recombinant human NEK7, sequence (Q8TDX7 whole entry): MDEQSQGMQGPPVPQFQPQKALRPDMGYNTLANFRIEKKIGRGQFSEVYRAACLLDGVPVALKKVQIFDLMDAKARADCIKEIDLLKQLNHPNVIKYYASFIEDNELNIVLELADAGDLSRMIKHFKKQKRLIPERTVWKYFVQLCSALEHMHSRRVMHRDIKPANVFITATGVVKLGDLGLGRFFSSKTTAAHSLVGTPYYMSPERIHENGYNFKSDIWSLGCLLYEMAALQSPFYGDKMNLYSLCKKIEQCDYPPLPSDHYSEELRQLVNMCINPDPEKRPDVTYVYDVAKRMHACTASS

SMILES | IC50 [1] | IC50 [2]
CC(C)(O)Cn1cc(-c2ccc(NC(=O)Nc3cc(C4(C(F)(F)F)CC4)no3)c(F)c2)c2c(N)ncnc21 [Example 14, 1-(4-(4-amino-7-(2-hydroxy-2-methylpropyl)-7H-pyrrolo[2,3-d]pyrimidin-5-yl)-2-fluorophenyl)-3-(3-(1-(trifluoromethyl)cyclopropyl)isoxazol-5-yl)urea] | 151 to 300 nM | < 150 nM
CC(C)(C)c1cc(NC(=O)NC2CC=C(c3cn(C4CC4)c4ncnc(N)c34)CC2)on1 (stereo not shown) [Example 15, 1-(4-(4-amino-7-cyclopropyl-7H-pyrrolo[2,3-d]pyrimidin-5-yl)cyclohex-3-en-1-yl)-3-(3-(tert-butyl)isoxazol-5-yl)urea] | > 1500 nM | > 1000 nM
CC(C)(C#N)c1cc(NC(=O)Nc2ccc(-c3cn(C4CC4)c4ncnc(N)c34)cc2F)on1 [Example 35, 1-(4-(4-amino-7-cyclopropyl-7H-pyrrolo[2,3-d]pyrimidin-5-yl)-2-fluorophenyl)-3-(3-(2-cyanopropan-2-yl)isoxazol-5-yl)urea] | 151 to 300 nM | 151 to 300 nM
Cc1cc(-c2cn(C3CC3)c3ncnc(N)c23)ccc1NC(=O)Nc1cc(C2(C(F)(F)F)CC2)no1 [Example 38, 1-(4-(4-amino-7-cyclopropyl-7H-pyrrolo[2,3-d]pyrimidin-5-yl)-2-methylphenyl)-3-(3-(1-(trifluoromethyl)cyclopropyl)isoxazol-5-yl)urea] | 501 to 1500 nM | 301 to 500 nM

Results, then the compound that gave them:

IC50 [1] | IC50 [2] | SMILES
< 150 nM | < 150 nM | CC1(c2cc(NC(=O)Nc3ccc(-c4cn(C5CC5)c5ncnc(N)c45)cc3F)on2)CC1 [Example 17, 1-(4-(4-amino-7-cyclopropyl-7H-pyrrolo[2,3-d]pyrimidin-5-yl)-2-fluorophenyl)-3-(3-(1-methylcyclopropyl)isoxazol-5-yl)urea]
< 150 nM | < 150 nM | CC1(c2cc(NC(=O)Nc3ccc(-c4cn(C5CC5)c5ncnc(N)c45)cc3F)on2)CCC1 [Example 34, 1-(4-(4-amino-7-cyclopropyl-7H-pyrrolo[2,3-d]pyrimidin-5-yl)-2-fluorophenyl)-3-(3-(1-methylcyclobutyl)isoxazol-5-yl)urea]
< 150 nM | < 150 nM | Nc1ncnc2c1c(-c1ccc(NC(=O)Nc3cc(C4(C(F)(F)F)CC4)no3)nc1)cn2C1CC1 [Example 37, 1-(5-(4-amino-7-cyclopropyl-7H-pyrrolo[2,3-d]pyrimidin-5-yl)pyridin-2-yl)-3-(3-(1-(trifluoromethyl)cyclopropyl)isoxazol-5-yl)urea]
< 150 nM | < 150 nM | Nc1ncnc2c1c(-c1ccc(NC(=O)Nc3cc(C4(C(F)(F)F)CC4)no3)c(F)c1)cn2C1CC(O)C1 (stereo not shown) [Example 39, 1-(4-(4-amino-7-(3-hydroxycyclobutyl)-7H-pyrrolo[2,3-d]pyrimidin-5-yl)-2-fluorophenyl)-3-(3-(1-(trifluoromethyl)cyclopropyl)isoxazol-5-yl)urea]
